# Test results as given in patent publication US20110091473A1, “NOVEL ANTIBODY THERAPIES” (GENMAB A/S, priority 2007, published 2011).
# T1: human CD20 (human, UniProt P11836 1-297)
# T1 sequence (looked up): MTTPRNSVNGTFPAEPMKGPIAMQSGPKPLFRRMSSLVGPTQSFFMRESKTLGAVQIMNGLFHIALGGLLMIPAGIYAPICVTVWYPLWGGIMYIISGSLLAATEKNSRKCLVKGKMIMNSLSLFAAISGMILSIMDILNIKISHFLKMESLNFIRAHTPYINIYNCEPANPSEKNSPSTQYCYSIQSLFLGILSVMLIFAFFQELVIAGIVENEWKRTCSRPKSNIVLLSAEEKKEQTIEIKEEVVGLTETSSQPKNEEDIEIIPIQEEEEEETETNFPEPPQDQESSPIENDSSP
# B1: rituximab (antibody, V domains shown)
# VH: QVQLQQPGAELVKPGASVKMSCKASGYTFTSYNMHWVKQTPGRGLEWIGAIYPGNGDTSYNQKFKGKATLTADKSSSTAYMQLSSLTSEDSAVYYCARSTYYGGDWYFNVWGAGTTVTVSA
# VL: QIVLSQSPAILSASPGEKVTMTCRASSSVSYIHWFQQKPGSSPKPWIYATSNLASGVPVRFSGSGSGTSYSLTISRVEAEDAATYYCQQWTSNPPTFGGGTKLEIK
# B2: CD20 mAb 11B8 (antibody, V domains shown)
# VH: EVQLVQSGGGLVHPGGSLRLSCTGSGFTFSYHAMHWVRQAPGKGLEWVSIIGTGGVTYYADSVKGRFTISRDNVKNSLYLQMNSLRAEDMAVYYCARDYYGAGSFYDGLYGMDVWGQGTTVTVSS
# VL: EIVLTQSPATLSLSPGERATLSCRASQSVSSYLAWYQQKPGQAPRLLIYDASNRATGIPARFSGSGSGTDFTLTISSLEPEDFAVYYCQQRSDWPLTFGGGTKVEIK
# Legend:
# [1] = tested on: CD20 on RAJI-CD20high cells; assay: Flow cytometry binding of FITC-conjugated B9E9 to RAJI-CD20high cells; design: species or system human; details: Berberine chloride 24 hours; Fillipin III 30 minutes
# Protocol: To deplete cholesterol from the cell membrane, methyl-beta-cyclodextrin (MβCD, Sigma, Zwijndrecht, The Netherlands) was added in varying concentrations to Daudi cells and RAJI-CD20high cells and incubated for 30 minutes at 37° C. under gentle shaking conditions. After incubation the cells were washed twice in PBS and resuspended in test medium to a concentration of 2×10^6 viable cells/ml. MβCD-treated Daudi cells (1×10^5) were incubated with a saturating concentration of FITC-conjugated human anti-CD20 mAb 2F2 or the anti-CD20 mAb B9E9 (Beckman Coulter Inc., Fullerton, Calif.) for 30 minutes at 4° C. After washing twice with FACS buffer (PBS, 0.1% Bovine Serum Albumine, 0.02% Sodium Azide), cells were analyzed on a FACS Calibur (Becton Dickinson, Breda, The Netherlands). […] Binding is expressed as mean fluorescence intensity. […]
# To determine the effect of adding cholesterol on CD20 mAb binding, all cell lines (1×10^5) were incubated with a saturating concentration of B9E9 for 30 minutes at 4° C. After washing twice with FACS buffer (PBS, 0.1% Bovine Serum Albumine, 0.02% Sodium Azide), the cells were analyzed on a FACS Calibur (Becton Dickinson, Breda, The Netherlands).
# Cholesterol was depleted from the cell membrane of various B cells using varying concentrations of lovastatin (as described in Example 3) and CD20 mAb binding was determined. […]
# [2] = tested on: RAJI-CD20high cells; assay: Rituximab-mediated CDC of RAJI-CD20high cells, MTT assay; type: cell-based, human; details: for rituximab-mediated CDC after pre-incubation: Berberine chloride 24 hours or Fillipin III 30 minutes, 10 μg/ml rituximab, 10% serum
# Source text: Statins are competitive inhibitors of 3-hydroxy-3-methylglutaryl-coenzyme A reductase (HMG-CoAR). HMG-CoAR is a rate-limiting enzyme of the mevalonate pathway essential for the synthesis of isoprenoid compounds including cholesterol (McTaggart S J (2006) Isoprenylated proteins. Cell Mol Life Sci 63:255-267). By inhibiting HMG-CoAR, statins can lower the cholesterol blood level and extract cholesterol from the cell membrane. To determine the effect of statin-mediated cholesterol depletion on immunotherapy RAJI-CD20high cells were cultured with a concentration range of lovastatin or diluent for 48 hours.
# Cell viability was measured in a MTT assay in which 3-(4,5-dimethylthiazol-2-yl)-2,5-diphenyltetrazolium bromide (MTT) solution (5 mg/ml, Roche, Diagnostics, Almere, The Netherlands) was added to each well (flat-bottom microtiter plates; Nunc, Rochester, N.Y.). The reaction was stopped after 4 hours of incubation at 37° C. by the addition of 100 μl of 20% SDS (Roche Diagnostics, Almere, The Netherlands). After overnight incubation at 37° C. the absorbance of the samples was measured at 550-525 nm using an Elisa reader (EL808x, Biotek instruments, Highland park, Vt., USA). Cytotoxicity was expressed as a relative viability of the rituximab-mediated CDC of lovastatin-treated cells compared to cells incubated with medium only and was calculated as follows: relative viability=[(Ae−Ab)/(Ac−Ab)]*100, where Ab is the background absorbance, Ae is experimental absorbance of the lysed cells and Ac is the absorbance of untreated cells. The viability was expressed as percentage survival in comparison to non-cholesterol depleted cells (control).
# RAJI-CD20high cells were incubated with diluents (control) or a concentration range of either Fillipin III for 30 minutes or Berberine chloride for 24 hours. […] The cytotoxic effects were measured in a MTT assay. […] After overnight incubation at 37° C. the absorbance of the samples was measured at 550-525 nm using an Elisa reader (EL808x, Biotek instruments, Highland park, Vt., USA). […]
# [3] = tested on: CD20 protein; assay: Total cellular CD20 protein level by Western blotting in RAJI-CD20high cells; type: cell-based, human; details: 5-30 μM, 48 hours
# Protocol: Control cells or cells incubated with 10 μM lovastatin for 48 hours, washed twice with PBS, were pelleted and lysed with radioimmunoprecipitation assay (RIPA) buffer containing Tris base 50 mM, NaCl 150 mM, NP-40 1%, sodium deoxycholate 0.25% and EDTA 1 mM supplemented with Complete® protease inhibitor cocktail tablets (Roche Diagnostics, Mannheim, Germany). Protein concentration was measured using Bio-Rad Protein Assay (BioRad, Hercules, Calif., USA). Equal amounts of whole cell proteins were separated on 12.5% SDS-polyacrylamide gel, transferred onto Protran® nitrocellulose membranes (Schleicher and Schuell BioScience Inc., Keene, N.H.), blocked with TBST (Tris buffered saline (pH 7.4) and 0.05% Tween 20) supplemented with 5% nonfat milk and 5% FBS. The following mAb (at 1:1000 dilution) were used for the overnight incubation: anti-CD20 (NCL-CD20-L26, Novocastra Laboratories Ltd, UK), anti-ICAM-1 (Santa Cruz, Santa Cruz, Calif.). After extensive washing with TBST, the membranes were incubated for 45 minutes with peroxidase conjugated ImmunoPure Goat Anti-Mouse IgG [F(ab′)2] (Jackson ImmunoResearch Laboratories Inc, Pa.). The chemiluminescence reaction for horseradish peroxidase was developed using SuperSignal WestPico Trail Kit® (Pierce, Rockford, Ill.) on a standard x-ray film. […]
# [4] = tested on: cell surface proteins on RAJI cells; assay: FACS binding of mAbs to cell surface proteins on RAJI cells; type: cell-based, human
# Protocol: B cells (either non-treated cells, cholesterol-depleted cells via MβCD or lovastatin, or cholesterol-reconstituted cells) were characterized for quantitative surface expression of the B cell markers CD19, CD20, and CD21, the T-cell marker CD3, complement regulatory proteins CD55 and CD59, and HLA-DR and CD81 by direct immunofluorescence. […] After washing twice with FACS buffer (PBS, 0.1% Bovine Serum Albumine, 0.02% Sodium Azide), the cells were analyzed on a flow cytometer.
# [5] = tested on: CD20 in the plasma membrane; assay: CD20 localization in RAJI-CD20high cells (immunofluorescence, surface biotinylation); type: cell-based, human
# Protocol: To examine localization of CD20 in RAJI-CD20high cells a double immunofluorescence staining with anti-CD20 mAb directed against an extracellular conformational epitope of CD20, and, after cell permeabilization, with a mAb against a linear epitope in the cytosolic tail of this molecule was performed. Control and lovastatin-pretreated RAJI-CD20high cells were stained in suspension at a density of 5×10^5/ml with FITC-conjugated B9E9 (1:10 in PBS, Immunotech Coulter Company, France) for 30 minutes at room temperature. After washing in PBS (three times), 200 μl of the cell suspension was spun onto a Cytospin slide. The slides were air-dried, acetone-fixed for 15 minutes at room temperature, washed three times with PBS, incubated with anti-CD20 mAb (Novocastra) (1:100 in PBS with 5% normal donkey serum (Jackson)) for 60 minutes at room temperature. The slides were washed three times in PBS and incubated with donkey anti-mouse Alexa555 conjugated antibody (Molecular Probes, CA) (1:200 for 30 minutes at room temperature). The slides were washed, mounted in Vectashield (Vector Laboratories, CA.) and examined by fluorescence microscopy (Leica TCS SP2). […] After five washes, gel-bound complexes were boiled in 2× Laemmli sample buffer and analyzed for CD20 by Western blotting using anti-CD20 mAb (NCL-CD20-L26, Novocastra) as described in Example 8.
# [6] = tested on: CD20 mRNA; assay: CD20 mRNA level by RT-PCR in RAJI-CD20high cells; type: cell-based, human; details: 10 μM, time course over 48 hours
# Protocol: To analyze whether lovastatin treatment would influence CD20 expression mRNA expression of the target was determined. RAJI-CD20high cells were incubated with either diluent (control) or 10 μM of lovastatin for different time periods (1-48 hours). Cells were washed twice with PBS, pelleted and treated with 1 ml of TRIzol Reagent (Invitrogen) to extract total RNA according to the manufacturer's protocol. RNA concentration was measured with Eppendorf Biophotometer (Eppendorf, Hamburg, Germany). The first strand cDNA synthesis containing 1 μg of total RNA was primed with oligo(dT) using Omniscript RT Kit (Qiagen, Chatsworth, Calif.). Primers used for CD20 PCR amplification were: forward-5′ […]3′ and reverse-5′ […]3′. The cycling conditions in the Mastercycler personal (Eppendorf) consisted of a first step of 94° C. denaturation for 10 minutes, followed by 35 cycles of annealing at 54° C. for 60 sec, extension at 75° C. for 90 sec, and denaturation at 94° C. for 30 sec, with a final elongation step at 75° C. for 10 minutes using HotStart Taq DNA Polymerase (Qiagen). Amplification products were analyzed by 1.5% agarose gel electrophoresis.
# [7] = biological target: T1, human CD20; assay: flow cytometry, FITC-conjugated antibody on freshly isolated B cells of five patients after 80 mg atorvastatin
# Source text: Informed consent was provided according to the Declaration of Helsinki.
# [8] = biological target: T1, human CD20; assay: cell-based or functional assay
# [9] = increasing concentrations of MβCD
molecule,measurement,setting,value
COc1ccc2cc3[n+](cc2c1OC)CCc1cc2c(cc1-3)OCO2 [Berberine chloride],binding of B9E9 to cells treated with cholesterol-modulating drug,[1],impaired binding
same,rituximab-mediated CDC after pre-incubation,[2],significantly abrogated
CC[C@H](C)C(=O)O[C@H]1C[C@@H](C)C=C2C=C[C@H](C)[C@H](CC[C@@H]3C[C@@H](O)CC(=O)O3)[C@H]21 [lovastatin],total cellular CD20 protein level,[3],did not influence
same,decrease of mAb binding of CD21,[4]; 10 μM lovastatin,not
same,mAb binding of CD19 and CD20,[4]; 10 μM lovastatin,clearly decreased
same,binding of mAb directed to the extracellular epitope of CD20,"[5]; 48-hour pre-treatment, confocal immunofluorescence",nearly completely abrogated binding
same,CD20 detectable among biotinylated surface proteins,[5]; treated cells compared with controls,comparable amounts
same,mRNA level for CD20,[6],remained constant
same,protection from rituximab-induced CDC (cell viability),"[2]; lovastatin concentration range 48 hours, 10% complement active serum",concentration-dependent protection
CD20 mAb B1 (GlaxoSmithKline) (antibody),"average decrease of the CD20/CD21 MFI ratio, day 3 against day 0 (so in the source)",[7],96%
Fillipin III,binding of B9E9 to cells treated with cholesterol-modulating drug,[1],not observed
same,rituximab-mediated CDC after pre-incubation,[2],remained sensitive
methyl-beta-cyclodextrin [MβCD],"binding of mAbs against CD19, CD20, CD55, CD59, HLA-DR and CD81",[4]; [9],negatively correlated
same,mAb binding to CD21,[4]; [9],not affected
B1,"EC50 of rituximab-mediated ADCC, 51Cr release, lovastatin-treated RAJI cells, PBMC effector cells",[8],0.082 µg/mL
same,"EC50 of rituximab-mediated ADCC, 51Cr release, non-treated RAJI cells, PBMC effector cells",[8],0.024 µg/mL
B2,"average decrease of the CD20/CD21 MFI ratio, day 3 against day 0 (so in the source)",[7],84%
